Results on one molecule are retold here after article PMC13266636 (ACS Medicinal Chemistry Letters, 2026).

Common to all, as to test: stopped-flow CO2 hydration assay
What all share (format): biochemical
Common to all, as to conditions: read-out: Topiramate; mean of […] assays, errors […]

One assay deals with T1, hCA IX (Homo sapiens, UniProt Q16790).
T1 construct: gene CA9; tumor-associated isoform

For the next assay, the target named is T2, hCA XIII (Homo sapiens, UniProt Q8N1Q1).
T2 construct: gene CA13; cytosolic isoform
T2 sequence (Q8N1Q1 whole entry, canonical isoform): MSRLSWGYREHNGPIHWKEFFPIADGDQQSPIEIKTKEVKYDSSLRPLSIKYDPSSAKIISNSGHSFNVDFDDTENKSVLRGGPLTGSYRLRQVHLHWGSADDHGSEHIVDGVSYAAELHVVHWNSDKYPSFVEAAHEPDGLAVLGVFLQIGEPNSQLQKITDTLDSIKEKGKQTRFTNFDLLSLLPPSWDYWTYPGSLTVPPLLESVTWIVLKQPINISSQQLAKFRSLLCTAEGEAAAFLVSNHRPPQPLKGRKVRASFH

The target of a further assay is T3, hCA VI (Homo sapiens, UniProt P23280).
T3 construct: gene CA6
T3 sequence (P23280 18-308): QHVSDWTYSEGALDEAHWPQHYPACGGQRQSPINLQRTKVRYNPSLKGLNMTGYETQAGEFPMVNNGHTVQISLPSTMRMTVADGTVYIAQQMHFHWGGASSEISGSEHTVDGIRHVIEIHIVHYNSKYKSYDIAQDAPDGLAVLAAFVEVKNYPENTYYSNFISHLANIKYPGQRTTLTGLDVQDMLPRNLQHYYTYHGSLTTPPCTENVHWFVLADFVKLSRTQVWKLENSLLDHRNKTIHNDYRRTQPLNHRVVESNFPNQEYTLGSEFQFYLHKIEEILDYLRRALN

The target of a further assay is T4, hCA XIV (Homo sapiens, UniProt Q9ULX7).
T4 construct: gene CA14
T4 sequence (Q9ULX7 16-290 limits assumed): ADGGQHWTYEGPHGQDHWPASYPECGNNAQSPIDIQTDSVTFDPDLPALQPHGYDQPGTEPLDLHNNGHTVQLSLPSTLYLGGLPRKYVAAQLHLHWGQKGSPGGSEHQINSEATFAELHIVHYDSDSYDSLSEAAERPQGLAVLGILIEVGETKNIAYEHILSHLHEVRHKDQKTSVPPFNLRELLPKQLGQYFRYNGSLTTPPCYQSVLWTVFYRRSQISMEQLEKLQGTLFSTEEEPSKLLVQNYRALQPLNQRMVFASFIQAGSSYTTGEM

For the molecule `CC1(C)O[C@@H]2[C@@H](CO[C@@]3(COS(N)(=O)=O)OC(C)(C)O[C@@H]23)O1` [Topiramate], the Ki was […] on hCA IX, 47 nM on hCA XIII, 45 nM at hCA VI and 1460 nM at hCA XIV.
